Results taken from ChEMBL document CHEMBL4033684, “Development of nonsteroidal glucocorticoid receptor modulators based on N-benzyl-N-(4-phenoxyphenyl)benzenesulfonamide scaffold” (Bioorg Med Chem, 2017).
Activity calls are given as the source filed them. The calls are words filed in the database; no cut-off is given here.

Assays:
Assay type in all cases: cell-based
[1] = target: T1, Glucocorticoid receptor (Homo sapiens, UniProt P04150); assay: Transactivation of human GRalpha expressed in HEK293 cells after 24 hrs by luciferase reporter gene assay; conditions: hek293, 24 h
T1 sequence (P04150 whole entry): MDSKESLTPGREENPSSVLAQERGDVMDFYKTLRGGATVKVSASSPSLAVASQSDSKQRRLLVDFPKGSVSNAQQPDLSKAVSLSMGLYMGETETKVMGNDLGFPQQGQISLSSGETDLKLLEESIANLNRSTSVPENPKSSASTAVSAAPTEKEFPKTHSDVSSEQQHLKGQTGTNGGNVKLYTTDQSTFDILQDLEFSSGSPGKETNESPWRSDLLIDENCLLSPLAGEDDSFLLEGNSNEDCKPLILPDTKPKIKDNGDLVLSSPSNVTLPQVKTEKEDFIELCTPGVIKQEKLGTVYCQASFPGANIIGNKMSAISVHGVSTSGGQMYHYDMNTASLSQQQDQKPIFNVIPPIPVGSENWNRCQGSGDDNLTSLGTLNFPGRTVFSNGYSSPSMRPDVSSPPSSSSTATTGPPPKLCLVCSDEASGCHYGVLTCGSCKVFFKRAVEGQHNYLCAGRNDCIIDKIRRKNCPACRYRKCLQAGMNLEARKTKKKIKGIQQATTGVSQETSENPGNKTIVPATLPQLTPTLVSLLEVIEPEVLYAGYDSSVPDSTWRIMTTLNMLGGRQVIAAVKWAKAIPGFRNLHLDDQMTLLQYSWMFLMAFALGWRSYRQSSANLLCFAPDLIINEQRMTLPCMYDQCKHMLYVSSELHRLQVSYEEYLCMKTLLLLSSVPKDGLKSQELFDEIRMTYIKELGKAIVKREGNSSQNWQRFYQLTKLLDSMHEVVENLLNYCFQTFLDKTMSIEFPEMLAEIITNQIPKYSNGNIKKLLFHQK

[2] = target: T1, Glucocorticoid receptor; assay: (§1) Antagonist activity at human GRalpha expressed in HEK293 cells assessed as inhibition of dexamethasone-induced response after 24 hrs by luciferase reporter gene assay
[3] = target: T2, Glucocorticoid receptor (Homo sapiens) (UniProt P04150); assay: Antagonist activity at human GRalpha expressed in HEK293 cells assessed as inhibition of dexamethasone-induced response at 30 uM after 24 hrs by luciferase reporter gene assay relative to control
T2 sequence (whole entry): T1 sequence (P04150 whole entry)

[4] = target: T2, Glucocorticoid receptor (Homo sapiens); assay: Transrepression of human GRalpha expressed in HEK293 cells co-expressing pGL4.32 assessed as inhibition of TNFalpha-stimulated NF-kB activity at 30 uM preincubated for 4 hrs followed by TNFalpha addition measured after 3 hrs by luciferase reporter gene assay relative to control
[5] = target: T2, Glucocorticoid receptor (Homo sapiens); assay: as §1

Activity [1]	IC50 [2]	inhibition [3]	inhibition [4]	inhibition [5]	SMILES
Not Active	7.48 µM				O=S(=O)(c1ccc(OC(F)(F)F)cc1)N(Cc1ccccc1)c1ccc(Oc2ccccc2)cc1
Not Active	> 30 µM	< 50%			O=S(=O)(c1ccc(C(F)(F)F)cc1)N(Cc1ccccc1)c1ccc(Oc2ccccc2)cc1
Not Active			inactive		CCNc1ccc(S(=O)(=O)N(Cc2ccccc2)c2ccc(Oc3ccccc3)cc2)cc1
Not Active	2.04 µM				O=S(=O)(c1ccc(F)cc1)N(Cc1ccccc1)c1ccc(Oc2ccccc2)cc1
Not Active	> 30 µM	< 50%			COc1ccc(Oc2ccc(N(Cc3ccccc3)S(=O)(=O)c3ccc(C#N)cc3)cc2)cc1
Not Active		inactive			CC(C)(C)c1ccc(CN(c2ccc(Oc3ccccc3)cc2)S(=O)(=O)c2ccc(C#N)cc2)cc1
Not Active		inactive			COc1ccc(CN(c2ccc(Oc3ccccc3)cc2)S(=O)(=O)c2ccc(C#N)cc2)cc1
Not Active	2.02 µM				Cc1ccc(S(=O)(=O)N(Cc2ccccc2)c2ccc(Oc3ccccc3)cc2)cc1
Not Active			inactive		CCN(CC)c1ccc(S(=O)(=O)N(Cc2ccccc2)c2ccc(Oc3ccccc3)cc2)cc1
Not Active		inactive			N#Cc1ccc(S(=O)(=O)N(CC2CC2)c2ccc(Oc3ccccc3)cc2)cc1
Not Active	> 30 µM	< 50%			O=S(=O)(c1ccc(S(F)(F)(F)(F)F)cc1)N(Cc1ccccc1)c1ccc(Oc2ccccc2)cc1
Not Active				inactive	COc1cccc(C(=O)Nc2ccc(Oc3ccc(O)cc3)c(C)c2)c1
Not Active	> 30 µM	< 50%			O=S(=O)(c1ccc(Br)cc1)N(Cc1ccccc1)c1ccc(Oc2ccccc2)cc1
Not Active	2.11 µM		32%		COC(=O)Nc1ccc(S(=O)(=O)N(Cc2ccccc2)c2ccc(Oc3ccccc3)cc2)cc1
Not Active	7.87 µM				N#Cc1ccc(S(=O)(=O)N(Cc2ccc(Br)cc2)c2ccc(Oc3ccccc3)cc2)cc1
Not Active	5.42 µM				N#Cc1ccc(S(=O)(=O)N(Cc2cccc(Cl)c2)c2ccc(Oc3ccccc3)cc2)cc1
Not Active		inactive			N#Cc1cccc(S(=O)(=O)N(Cc2ccccc2)c2ccc(Oc3ccccc3)cc2)c1
Not Active	3.59 µM				O=S(=O)(c1ccccc1)N(Cc1ccccc1)c1ccc(Oc2ccccc2)cc1
Not Active		inactive			COc1cccc(Oc2ccc(N(Cc3ccccc3)S(=O)(=O)c3ccc(C#N)cc3)cc2)c1
Not Active	> 30 µM	< 50%			CC(C)(C)c1ccc(S(=O)(=O)N(Cc2ccccc2)c2ccc(Oc3ccccc3)cc2)cc1

Activity [1]	IC50 [2]	inhibition [3]	inhibition [4]	inhibition [5]	SMILES
Not Active	2.4 µM				O=S(=O)(c1ccc(Cl)cc1)N(Cc1ccccc1)c1ccc(Oc2ccccc2)cc1
Not Active	> 30 µM	< 50%			Cc1ccc(CN(c2ccc(Oc3ccccc3)cc2)S(=O)(=O)c2ccc(C#N)cc2)cc1
Not Active	> 30 µM				N#Cc1ccc(S(=O)(=O)N(Cc2ccccc2Cl)c2ccc(Oc3ccccc3)cc2)cc1
Not Active	1.87 µM				COc1ccc(S(=O)(=O)N(Cc2ccccc2)c2ccc(Oc3ccccc3)cc2)cc1
Not Active	3.15 µM		64%		Nc1ccc(S(=O)(=O)N(Cc2ccccc2)c2ccc(Oc3ccccc3)cc2)cc1
Not Active			39%		Nc1cccc(S(=O)(=O)N(Cc2ccccc2)c2ccc(Oc3ccccc3)cc2)c1
Not Active	1.97 µM		60%		CC(=O)Nc1ccc(S(=O)(=O)N(Cc2ccccc2)c2ccc(Oc3ccccc3)cc2)cc1
Not Active		inactive			COc1ccccc1Oc1ccc(N(Cc2ccccc2)S(=O)(=O)c2ccc(C#N)cc2)cc1
Not Active	> 30 µM	< 50%			N#Cc1ccc(S(=O)(=O)N(Cc2ccc(F)cc2)c2ccc(Oc3ccccc3)cc2)cc1
Not Active			inactive		CNc1ccc(S(=O)(=O)N(Cc2ccccc2)c2ccc(Oc3ccccc3)cc2)cc1
Not Active	> 30 µM	< 50%			N#Cc1ccccc1S(=O)(=O)N(Cc1ccccc1)c1ccc(Oc2ccccc2)cc1
Not Active	> 30 µM	< 50%			N#Cc1ccc(S(=O)(=O)N(CCCc2ccccc2)c2ccc(Oc3ccccc3)cc2)cc1
Not Active	> 30 µM	< 50%			N#Cc1ccc(S(=O)(=O)N(Cc2ccc3ccccc3c2)c2ccc(Oc3ccccc3)cc2)cc1
Not Active	> 30 µM	< 50%			N#Cc1ccc(S(=O)(=O)N(CCc2ccccc2)c2ccc(Oc3ccccc3)cc2)cc1
Not Active	> 30 µM	< 50%			N#Cc1ccc(S(=O)(=O)N(Cc2ccc(Cl)cc2)c2ccc(Oc3ccccc3)cc2)cc1
Not Active	> 30 µM	< 50%			N#Cc1ccc(S(=O)(=O)N(Cc2cccc3ccccc23)c2ccc(Oc3ccccc3)cc2)cc1
Not Active			inactive		CN(C)c1ccc(S(=O)(=O)N(Cc2ccccc2)c2ccc(Oc3ccccc3)cc2)cc1
Not Active	5.77 µM				O=[N+]([O-])c1ccc(S(=O)(=O)N(Cc2ccccc2)c2ccc(Oc3ccccc3)cc2)cc1
Not Active			46%		Nc1ccccc1S(=O)(=O)N(Cc1ccccc1)c1ccc(Oc2ccccc2)cc1
Not Active	11.7 µM				O=S(=O)(Nc1ccc(Oc2ccccc2)cc1)c1cccc(C(F)(F)F)c1
